{
  "source": "patent US20040122086A1",
  "about": "“Method for the production of anhydrous, pharmaceutical formulations of xanthogenates” (priority 2001, published 2004)",
  "key": {"[1]": {"system": "herpes simplex virus 1 (HSV 1), strain Angelotti", "assay": "Antiviral action of D609 against HSV 1 (cytopathogenic effect) in monkey renal cells", "assay_type": "cell-based", "conditions": "for D609 concentration necessary to reduce the number of the infected cultures by 50%: monkey renal cells (Rita line)", "procedure": "Monkey renal cells (Rita line) were infected in Linbro plates with 20 plaque-forming units of herpes simplex virus 1 (HSV 1), strain Angelotti. After 15 min, fresh cell culture medium (adjusted to pH 6.8 by reduction of the amount of sodium bicarbonate to 0.85 g/l and addition of 1 ml of 1 N HCl) which contained either 0, 5, 10, 15, 20, 25 or 30 μg/ml of D609 was added. All batches were carried out in quadruplicate. At the same time, cultures containing D609 and a fourfold concentration of cholesterol or containing cholesterol alone were treated. After 5 days, the monkey renal cells were lyzed in all untreated cultures by means of the cytopathogenic effect (cpe). After a further three days, the number of the cultures with cpe was determined for each D609 concentration. As can be inferred from FIG. 2, the number of cultures with cpe decreases with increasing D609 dose. The antiviral action of D609 was increased by cholesterol. While without cholesterol 25 μg/ml of D609 were necessary in order to reduce the number of the infected cultures by 50%, in the presence of cholesterol only 10 μg/ml of D609 were necessary. Cholesterol alone had no effect on the replication of HSV. Up to the highest concentration (120 μg/ml), all cultures were lyzed by HSV 1."}, "herpes simplex virus 1": {"system": "herpes simplex virus 1", "assay": "Antiviral use of D609 ointment in animal experiments (background)", "assay_type": "in vivo"}, "[2]": {"assay": "Stability of D609 in aqueous solution (pH increase as measure of decomposition)", "assay_type": "physicochemical", "conditions": "1 mg/ml D609 in distilled water, 37° C.", "procedure": "D609 was dissolved in distilled water in a concentration of 1 mg/ml. 100 ml of this solution in each case were filled into a 200 ml Erlenmeyer flask. One of two solutions was treated with 1 g of cholesterol. Both solutions were incubated at 37° C. The pH of the solutions was determined at regular intervals. D609 decomposes in the presence of water to give tricyclodecanol, carbon disulfide and KOH. The pH of the solution increases with the formation of KOH. The increase in the pH is therefore a measure of the decomposition of D609."}, "[3]": {"system": "hairless mice (strain Swiss CD3, Nu/Nu)", "assay": "Irritating action of D609 ointments on hairless mice", "conditions": "for number of animals with slight erythema: 10 mice per group", "method": "(§1) D609 was mixed in a mortar together with the same proportion by weight of potassium salt of decanoic acid and two parts by weight of phosphatidylcholine or two or four parts by weight of cholesterol. After this, sufficient highly liquid paraffin oil and petroleum jelly (1 part by weight of paraffin oil, 4 parts by weight of petroleum jelly) were added such that in each case a concentration of 1.25; 2.5; 5.0; or 10% of D609 was achieved. In the same manner, D609-containing ointments without phosphatidylcholine or cholesterol were prepared.\n(§2) 100 mg of ointment were applied twice in the neck region to 10 hairless mice each (strain Swiss CD3, Nu/Nu) at an interval of four hours. 12 hours after the last application, the degree of irritation was read off. The irritation was assessed according to the following scheme: slight erythema 0.5; severe erythema 1.0; ulceration 2.0."}, "[4]": {"system": "hairless mice (strain Swiss CD3, Nu/Nu)", "conditions": "mouse, in vivo", "method": "as §1, §2"}, "[5]": {"assay": "Tolerability of D609 / xanthates in ointments (background)", "conditions": "ointment"}, "[6]": {"conditions": "ointments with 4 parts by weight of cholesterol, 10% D609"}, "[7]": {"conditions": "ointments with two parts by weight of cholesterol (plus same weight of potassium salt of decanoic acid)"}},
  "data": [
    {"smiles": "CC(C)CCC[C@@H](C)[C@H]1CC[C@H]2[C@@H]3CC=C4C[C@@H](O)CC[C@]4(C)[C@H]3CC[C@]12C", "note": "[Cholesterol, cholesterol]", "values": [
      {"measurement": "effect on the replication of HSV", "setting": "[1]; cholesterol alone, up to the highest concentration (120 μg/ml), all cultures were lyzed", "result": "no effect"}
    ]},
    {"smiles": "S=C(S)OC1CC2CC1C1CCCC21", "note": "(centres unmarked) [D609, tricyclodecan-9-yl xanthate]", "values": [
      {"measurement": "D609 concentration necessary to reduce the number of the infected cultures by 50%", "setting": "[1]; in the presence of a fourfold concentration of cholesterol, pH 6.8", "result": 10, "unit": "µg/mL"},
      {"measurement": "factor by which antiviral action of D609 is improved by cholesterol", "setting": "[1]; pH 6.8, with versus without cholesterol", "result": "> 2.5"},
      {"measurement": "D609 concentration necessary to reduce the number of the infected cultures by 50%", "setting": "[1]; without cholesterol, pH 6.8, cpe read after 8 days", "result": 25, "unit": "µg/mL"},
      {"measurement": "concentration needed in an ointment for effective antiviral use", "setting": "herpes simplex virus 1", "result": "at least 2.5%"},
      {"measurement": "pH increase and thus decomposition", "setting": "[2]; 100 ml treated with 1 g of cholesterol, after 72 hours", "result": "only a small pH increase"},
      {"measurement": "time within which marked decomposition is seen", "setting": "[2]; without cholesterol", "result": "≤ 6", "unit": "h"},
      {"measurement": "degree of irritation", "setting": "[3]; 2.5% D609 in pure petroleum jelly ointment without phosphatidylcholine or cholesterol, 100 mg applied twice, read 12 hours after last application", "result": "marked irritation"},
      {"measurement": "degree of irritation", "setting": "[3]; 5% D609 in pure petroleum jelly ointment without phosphatidylcholine or cholesterol, 100 mg applied twice, read 12 hours after last application", "result": "very strongly pronounced"},
      {"measurement": "number of animals with slight erythema", "setting": "[3]; ointments containing four parts by weight of phosphatidylcholine, 5% D609", "result": "one"},
      {"measurement": "number of animals with slight erythema", "setting": "[3]; ointments containing four parts by weight of phosphatidylcholine, 10% D609", "result": "five"},
      {"measurement": "degree of irritation", "setting": "[3]; [6]", "result": "almost free of irritant action"},
      {"measurement": "number of animals with slight erythema", "setting": "[3]; [6]", "result": "one"},
      {"measurement": "D609 concentration at which a significant irritation occurred", "setting": "[3]; [7]", "result": 10, "unit": "%"},
      {"measurement": "degree of irritation", "setting": "[3]; [7]", "result": "marked decrease in the symptoms"},
      {"measurement": "tolerability", "setting": "[4]", "result": "marked improvement in the tolerability"},
      {"measurement": "maximum tolerable concentration in ointments", "setting": "[5]", "result": 1, "unit": "%"}
    ]}
  ]
}
